Test system: phospholipase D
Assay: Substrate specificity of phospholipase D (choline release, choline oxidase/peroxidase colorimetry at 500 nm)
Format: biochemical, Streptomyces chromofuscus
Settings: substrate emulsion 10 mM, 0.1 ml; 37°C, 10 minutes, pH 8.0; relative to activity on lysolecithin as 100
Protocol: To the reaction mixture having a composition as above was added 0.05 ml of the enzyme solution. After reaction it 37°C for 10 minutes, the mixture was boiled for 5 minutes to stop the reaction. The reaction solution was cooled to 37°C. Then, 0.1 ml of 4-aminoantipyrine (3 mg/ml), 0.1 ml of Phenol (2 mg/ml), 0.1 ml of peroxidase (2 U/ml), 0.1 ml of choline oxidase (30 U/ml) and 0.1 ml of water were added to the solution, the reaction was conducted at 37°C for 20 minutes before adding 2 ml of 1% Triton X100 to the reaction mixture for measuring the absorbance at 500 nm. It is defined that 1 Unit (U) of phospholipase D has an enzyme activity of producing 1 […] of choline. The enzyme activity is calculated from the following equation: U/ml = ΔA₅₀₀ x 0.55 [formula] wherein ΔA₅₀₀ denotes the absorbance at 500 nm.
The same procedure as described above for the reaction solution for the measurement of the activity was repeated except that emulsions (10 mM, 0.1 ml) of lecithin, lysolecithin and sphingomyelin, respectively, as substrates were used. The amount of choline was determined, and the relative enzyme activities are calculated in terms of the enzyme activity to lysolecithin as 100.

In order of rising “Relative Activity” value:
1. Sphingomyelin  19%
2. phosphatidylcholine [Lecithin]  51%
3. Lysolecithin  100%
